Read-outs that look alike come from different tables or passages of the source.
How the values were obtained:
[1] = Urinary concentrations of NNI compounds in wild raccoons; assay type: in vivo, raccoon, Procyon lotor; conditions: for GM ± SD urinary concentration / Percentile 25th urinary concentration / Percentile 50th urinary concentration / Percentile 75th urinary concentration / Percentile 95th urinary concentration / Percentile 100th urinary concentration: raccoon urine, n = 59
[2] = obtained from previous studies on humans; ref Ikenaka et al., [2019]; cited from earlier work
[3] = Japanese people, n = 45; ref Ikenaka et al. ([2019]); cited from earlier work
[4] = mice, 78‐week carcinogenicity study; ref Hirano et al., [2018]; cited from earlier work
[5] = Raccoons: present study (n = 59)

SMILES	Mean urinary neonicotinoid concentration [1, 5] [µg/g creatinine]	GM ± SD urinary concentration ([1]; creatinine‐adjusted) [μg/g creatinine]	Percentile 25th urinary concentration ([1]; creatinine‐adjusted)	Percentile 50th urinary concentration ([1]; creatinine‐adjusted)	Percentile 75th urinary concentration ([1]; creatinine‐adjusted)	Percentile 95th urinary concentration ([1]; creatinine‐adjusted)	Percentile 100th urinary concentration ([1]; creatinine‐adjusted)	GM ± SD urinary concentration ([1]; volume‐adjusted) [µg/L]	Percentile 25th urinary concentration ([1]; volume‐adjusted)	Percentile 50th urinary concentration ([1]; volume‐adjusted)	Percentile 75th urinary concentration ([1]; volume‐adjusted)	Percentile 95th urinary concentration ([1]; volume‐adjusted)	Percentile 100th urinary concentration ([1]; volume‐adjusted)	urinary excretion correction coefficient r [2]	Maximum urinary neonicotinoid concentration [3] [µg/g creatinine]	Mean urinary neonicotinoid concentration [3] [µg/g creatinine]	no‐observable‐adverse‐effect level (NOAEL) [4] [mg/kg]	Maximum urinary neonicotinoid concentration [1, 5] [µg/g creatinine]
C/C(=N\C#N)N(C)Cc1ccc(Cl)nc1 [Acetamiprid, acetamiprid]	0.28	0.10 ± 0.74	<PQL	<PQL	0.25 µg/g creatinine	0.79 µg/g creatinine	5.61 µg/g creatinine	0.07 ± 0.20	<PQL	<PQL	0.23 µg/L	0.33 µg/L	1.29 µg/L	0.586	1.03	0.043	–	–
CN/C(=N\[N+](=O)[O-])NCc1cnc(Cl)s1 [Clothianidin, clothianidin]	0.81	0.26 ± 1.65	<PQL	0.21 µg/g creatinine	0.43 µg/g creatinine	4 µg/g creatinine	9.4 µg/g creatinine	0.17 ± 0.89	<PQL	0.14 µg/L	0.45 µg/L	2.62 µg/L	4.33 µg/L	0.596	15.06	1.06	~50	–
CN/C(=N/CC1CCOC1)N[N+](=O)[O-] (stereo not drawn) [Dinotefuran, dinotefuran]	0.74	0.37 ± 1.64	<PQL	<PQL	<PQL	1.38 µg/g creatinine	10.28 µg/g creatinine	0.25 ± 0.76	<PQL	<PQL	<PQL	1.11 µg/L	5.67 µg/L	0.899	9.49	0.57	–	–
O=[N+]([O-])NC1=NCCN1Cc1ccc(Cl)nc1 [Imidacloprid, imidacloprid]	0.23	0.08 ± 0.75	<PQL	<PQL	<PQL	0.43 µg/g creatinine	5.76 µg/g creatinine	0.06 ± 0.20	<PQL	<PQL	<PQL	0.36 µg/L	1.45 µg/L	0.133	1.59	0.13	–	–
CCN(Cc1ccc(Cl)nc1)/C(=C/[N+](=O)[O-])NC [Nitenpyram, nitenpyram]	0	–	<PQL	<PQL	<PQL	<PQL	<PQL	–	<PQL	<PQL	<PQL	<PQL	<PQL	–	1.25	0.1	–	0
C/C(=N\C#N)NCc1ccc(Cl)nc1 [N‐dm‐acetamiprid, N‐desmethyl‐acetamiprid]	2.48	0.16 ± 10.78	<PQL	<PQL	0.35 µg/g creatinine	8.28 µg/g creatinine	76.56 µg/g creatinine	0.11 ± 9.33	<PQL	<PQL	0.22 µg/L	3.28 µg/L	71.28 µg/L	–	26.92	2.2	–	–
N#C/N=C1\SCCN1Cc1ccc(Cl)nc1 [Thiacloprid, thiacloprid]	0.09	0.03 ± 0.44	<PQL	<PQL	<PQL	<PQL	3.41 µg/g creatinine	0.02 ± 0.04	<PQL	<PQL	<PQL	<PQL	0.32 µg/L	0.05	0.2	0.03	–	–
CN1COCN(Cc2cnc(Cl)s2)/C1=N\[N+](=O)[O-] [Thiamethoxam, thiamethoxam]	0.29	0.10 ± 0.95	<PQL	<PQL	<PQL	0.5 µg/g creatinine	6.96 µg/g creatinine	0.07 ± 0.95	<PQL	<PQL	<PQL	0.42 µg/L	7.30 µg/L	0.6	2.11	0.17	–	–
